How the values were obtained:
[1] = oral administration; cited from earlier work
[2] = Dissolution of Apixaban in non-halogen organic solvents; assay type: physicochemical; details: 25 mg Apixaban in 1 mL of each of ethyl acetate, ethyl formate, methyl propionate, ethanol; stirred
Description: 25 mg of Apixaban was added to 1 mL of each of ethyl acetate, ethyl formate, methyl propionate, and ethanol and stirred. As a result, it was confirmed that Apixaban was not dissolved in the four organic solvents (FIG. 1).

[3] = Dissolution of Apixaban in halogen organic solvent (dichloromethane); assay type: physicochemical; details: 25 mg Apixaban in 1 mL dichloromethane, after 12 hours
Description: 25 mg of Apixaban was dissolved in 1 mL, of dichloromethane, and the mixture was photographed after 12 hours.

For COc1ccc(-n2nc(C(N)=O)c3c2C(=O)N(c2ccc(N4CCCCC4=O)cc2)CC3)cc1 [Apixaban], the bioavailability [1] is listed as “about 50%”, the “Dissolution of Apixaban in non-halogen organic solvents” value [2] is listed as “not dissolved” and the “Dissolution / recrystallization of Apixaban in dichloromethane” value [3] is listed as “Apixaban crystals were formed”.
